These results are taken from US20100216889A1, “PROLONGED EFFECT DISINFECTANT CLEANSER” (THE TRUSTEES OF COLUMBIA UNIVERSITY IN THE CITY OF, priority 2007, published 2010).

The assay deals with S. aureus. The assay can be described thus: Antiseptics and combinations in soap base C, mixed one minute with S. aureus. In kind it is cell-based. The conditions noted are these: antiseptics in soap base C; for Colony counts: 0.1 ml of 10^8 cfu/ml S. aureus mixed for one minute; for Log10 reduction from Control: S. aureus, one minute, control = soap base. On the procedure:
To 0.9 ml of the base, 0.1 ml of 10^8 cfu/ml of S. aureus was added and mixed for one minute, after which 9.0 ml of drug inactivating media was added. The samples were mixed well and serial dilutions were made with drug inactivating media. Various dilutions were plated on TSA plates. As the control, […] of soap base was used.

Consider `Oc1cc(Cl)ccc1Oc1ccc(Cl)cc1Cl` [0.5% TC, Triclosan], for which the Colony counts is 4.3 × 10^6 and the “Log10 reduction from Control” value is given as 0.89.

Regarding `CC(C)(C)CC(C)(C)c1ccc(OCCOCC[N+](C)(C)Cc2ccccc2)cc1.[Cl-]` [0.18% BZT, Benzathonium chloride], the Colony counts is 3.9 × 10^6 and the “Log10 reduction from Control” value was determined as 0.94.

Take Polyhexamethylene biguanide [0.3% PHMB]: the Colony counts is 2.0 × 10^6 and the “Log10 reduction from Control” value was determined as 1.17.

For the molecule `N=C(NCCCCCCNC(=N)NC(=N)Nc1ccc(Cl)cc1)NC(=N)Nc1ccc(Cl)cc1.O=C(O)[C@H](O)[C@@H](O)[C@H](O)[C@H](O)CO.O=C(O)[C@H](O)[C@@H](O)[C@H](O)[C@H](O)CO` [0.2% CHG, Chlorhexidine gluconate], the Colony counts is 4.1 × 10^6 and the “Log10 reduction from Control” value was 0.92.
